Laboratory results published in patent US7427599B2, “Biologically active peptide comprising Tyrosyl-seryl-valine(YSV)” (CMS Peptides Patent Holding Company Limited, priority 2003, dated 2008).
Marks after values point to notes of the source that are not given here. Peptide text beside a SMILES is read from it.

Columns and labels:
[1] = system: A549 human pulmonary carcinoma; assay: A549 human pulmonary carcinoma xenograft in nude mice; type: in vivo, BALB/c (nu/nu) athymic nude mice; details: for Tumor inhibition index (%) / Tumor volume (cm^3) / Tumor weight: 40 days
Method: Healthy BALB/c (nu/nu) athymic nude mice (SPF, 4-5 weeks old, weighting 18-22 g) were purchased from Shanghai Tumor Academe of China Medical Academy of Science. In the first experiment, female was used. In the second experiment, male was used.
Select A549 human pulmonary carcinoma xenografts of diameter longer than 1 cm with good growth on nude mice. Aseptically excise the tumor mass, cut into pieces of 2-4 mm^3 and submerged in RPMI1640. Pulmonary carcinoma nude mice model was prepared by transplanting the tumor mass hypodermally to the back of healthy nude mice near to the neck via an incision at the ventral thorax.
The nude mice bearing A549 xenografts were randomly divided into groups of: saline control (0.2 ml/day), YSV groups of different dosages, and Cy control (0.2 mg/kg/day). The test substances were dissolved in 0.2 ml saline and administered intraperitoneally to the mice starting from the day after the transplantation, once per day for 40 consecutive days.
The general condition of the mice was observed daily. The mice were weighed every 3-4 days and the volume of the tumor was measured:
V=(⅙)πXYZ, where X, Y, and Z were the diameters of the tumor on the 3 planes.
The day after the last injection, the tumors were excised, weighted, and the volume measured. The tumors were examined for signs of necrosis. Tumor inhibition index=(average tumor weight of saline group−average tumor weight of test group)/average tumor weight of saline group×100%)
Statistical analysis was performed with SPSS software using one-way ANOVA analysis.

[2] = system: Human cervical carcinoma Hela cells; assay: Inhibition of growth of human cervical carcinoma Hela cells in vitro (MTT); type: cell-based; details: for % inhibition / OD570 nm: 48 hours; for OD570 nm: MTT, negative control 0.24 ± 0.01
Method: Human cervical carcinoma Hela cells at logarithmic growth phase were detached by incubating for 2 to 3 minutes with PBS containing 0.05% trypsin and 0.02% EDTA. The cells were examined by inverted phase contrast microscopy. The supernatant was removed after cytoplasm pyknosis and dilatation of cell compartment were observed. A few milliliters of RPMI-1640 medium with 10% FBS were added to terminate the digestion. The cells were harvested by gently blowing with a pipette. The cells were collected by centrifugation at 150 g for 10 minutes, and washed twice by cold Hank's solution with re-suspension and centrifugation. The cell pellets were re-suspended in RPMI-1640 medium with 10% FBS and adjusted to density of 5×10^4/ml. The treated cells were placed onto a 96 wells cell culture plate, 100 μl/well. The cells were incubated for 24 hours at 37° C., 5% CO2 for re-activation and attachment.
The experiment included two testing groups with different concentrations of YSV in culture medium, and a negative control with culture medium only. The final concentrations of YSV were 10 μg/ml and 5 μg/ml. Each group contained five parallel wells. 100 μl/well testing solution was added to the treated cells. The cells were incubated for 48 hours at 37° C., 5% CO2.
The cells were pelleted by centrifugation at 150 g for 10 minutes. The supernatant was discarded and 100 μl/well MTT of 0.5 mg/ml in RPMI-1640 was added to the cell pellets and the cells were re-suspended by shaking for 2 minutes. Incubation was continued for 4 hours. The supernatant was discarded after centrifugation at 150 g for 10 minutes. After blotted dry by filter paper, 100 μl/well 40 mM HCl-2-propanol was added to the cell pellets and shaken for 3 minutes. OD570 nm of each well referenced at 630 nm was obtained by using ELISA reader.

[3] = system: human leukemia K562 cells; assay: Proliferation of cultured human leukemia K562 cells in vitro (MTT); type: cell-based; details: for % inhibition / OD value: 48 hours; for OD value: MTT OD570 nm, negative control 0.43 ± 0.01
Method: A human leukemia K562 cell at logarithmic growth phase was adjusted to density of 5×10^4/ml with RPMI-1640 culture medium containing 10% FBS. 100 μl/well of the cell were placed onto a 96 wells cell culture plate. The cells were incubated for 24 hours at 37° C., 5% CO2. The experiment included […] with different concentrations of YSV in culture medium and a negative control group with culture medium only. The final concentrations of YSV were 40 μg/ml, 20 μg/ml, 10 μg/ml, and 5 μg/ml. Each group contained five parallel wells. 100 μl/well testing solution was added to the treated cells. The cells were incubated for 48 hours at 37° C., 5% CO2.
The cells were then pelleted by centrifugation at 150 g for 10 minutes. The supernatant was removed and 100 μl/well MTT solution of 0.5 mg/ml in RPMI-1640 was added to the cell pellets and the cells were re-suspended by shaking for 2 minutes. Incubation was continued for 4 hours. The supernatant was removed after a centrifugation at 150 g for 10 minutes. After blotted dry by filter paper, 100 μl/well 40 mM HCl-2-propanol was added to the cell pellets and shaken for 3 minutes. OD570 nm of each well referenced at 630 nm was obtained by using ELISA reader.

[4] = system: human leukemia K562; assay: Growth of nude mice-transplanted human leukemia K562; type: in vivo, nude mice (BALB/C (nu/nu))
Method: K-562 cells were maintained in RPMI-1640 medium with 10% FBS at 37° C., 5% CO2.
K562 cells at log phase were adjusted to 1.6×10^8/ml with RPMI-1640. 0.1 ml of this was subcutaneously injected to the right flank of the healthy nude mice to form the leukemia mice model.
The mice bearing human leukemia K562 cells were randomized into groups of: saline control (0.2 ml/day), and YSV (160 μg/kg/day). The test substance was dissolved in 0.2 ml saline and administration of the test substance by intraperitoneal injection was started on the next day after the K562 inoculation, once per day for 30 consecutive days.
The general conditions of the mice was examined daily and the tumor size was measured in every 3-4 days. Tumor volume (mm^3) V=(⅙)πXYZ where X, Y, and Z were the diameters of the tumor on the three planes.
On the next day after the last test substance administration, the tumors were excised, the weight of tumor was recorded and the tumor volume was measured. Tumor growth inhibition index (%)=(mean tumor weight of control group—mean tumor weight of treatment group)/mean tumor weight of control group×100)
All the data were shown as arithmetic mean ±SD. The data were analyzed using the ANOVA test of the SPSS software. P<0.05 was accepted as having statistical significance.

SMILES: CC(C)[C@H](NC(=O)[C@H](CO)NC(=O)[C@@H](N)Cc1ccc(O)cc1)C(=O)O [YSV, L-Tyrosyl-L-seryl-L-valine] (H-Tyr-Ser-Val-OH)
- Tumor inhibition index (%) ([1]; experiment 1, female nude mice, 160 μg/kg/day i.p.): 32.8%
- Tumor volume (cm^3) ([1]; experiment 1, female nude mice, 160 μg/kg/day i.p., saline 1.87 ± 1.10): 0.92 ± 0.79* cm^3
- Tumor weight ([1]; experiment 1, female nude mice, 160 μg/kg/day i.p., saline 2.49 ± 1.02): 1.67 ± 0.97 g
- Tumor inhibition index (%) ([1]; experiment 1, female nude mice, 320 μg/kg/day i.p.): 32.2%
- Tumor volume (cm^3) ([1]; experiment 1, female nude mice, 320 μg/kg/day i.p., saline 1.87 ± 1.10): 0.84 ± 0.45* cm^3
- Tumor weight ([1]; experiment 1, female nude mice, 320 μg/kg/day i.p., saline 2.49 ± 1.02): 1.69 ± 0.70 g
- Tumor inhibition index (%) ([1]; experiment 1, female nude mice, 640 μg/kg/day i.p.): 37.4%
- Tumor volume (cm^3) ([1]; experiment 1, female nude mice, 640 μg/kg/day i.p., saline 1.87 ± 1.10): 1.17 ± 0.84 cm^3
- Tumor weight ([1]; experiment 1, female nude mice, 640 μg/kg/day i.p., saline 2.49 ± 1.02): 1.56 ± 1.08 g
- Tumor inhibition index (%) ([1]; experiment 2, male nude mice, 160 μg/kg/day i.p.): 50.8%
- Tumor volume (cm^3) ([1]; experiment 2, male nude mice, 160 μg/kg/day i.p., saline 1.34 ± 0.69): 0.78 ± 0.41 cm^3
- Tumor weight ([1]; experiment 2, male nude mice, 160 μg/kg/day i.p., saline 1.51 ± 0.79): 0.74 ± 0.31 g
- inhibition of growth of A549 xenograft in nude mice (conclusion) ([1]; suitable dosages, p<0.05 vs saline): able to inhibit the growth of nude mice-transplanted A549 human pulmonary carcinoma xenograft
- inhibition of growth of Hela cells in vitro (conclusion) ([2]; 5 μg/ml to 10 μg/ml, p<0.05): able to inhibit the growth of human cervical carcinoma Hela cells in vitro
- % inhibition ([2]; 5 μg/ml): 18.4%
- OD570 nm ([2]; 5 μg/ml): 0.22 ± 0.00
- % inhibition ([2]; 10 μg/ml): 19.6%
- OD570 nm ([2]; 10 μg/ml): 0.22 ± 0.01
- inhibition of growth of K562 cells in vitro (conclusion) ([3]; 5 μg/ml to 40 μg/ml, p<0.05): able to inhibit the growth of human leukemia K562 cells in vitro
- % inhibition ([3]; 5 μg/ml): 9.7%
- OD value ([3]; 5 μg/ml): 0.39 ± 0.01
- % inhibition ([3]; 10 μg/ml): 9.3%
- OD value ([3]; 10 μg/ml): 0.39 ± 0.01
- % inhibition ([3]; 20 μg/ml): 11.3%
- OD value ([3]; 20 μg/ml): 0.38 ± 0.00
- % inhibition ([3]; 40 μg/ml): 10.8%
- OD value ([3]; 40 μg/ml): 0.38 ± 0.00
- Inhibition index (%) ([4]; 160 μg/kg/day intraperitoneal, 30 consecutive days, from tumor weight vs saline): 37.9%
- Tumor weight ([4]; 160 μg/kg/day intraperitoneal, 30 consecutive days, saline 4.75 ± 2.21): 2.95 ± 1.58 g
- Tumor volume (cm3) ([4]; 160 μg/kg/day intraperitoneal, 30 consecutive days, saline 5.08 ± 2.15): 3.15 ± 1.74 cm3
- inhibition of growth of nude mice-transplanted K562 (conclusion) ([4]; suitable dosage, p<0.05 vs saline): able to inhibit the growth of nude mice-transplanted significantly human leukemia K562
